This note sets out measurements from paper PMC6131563, “Talaropeptides A-D: Structure and Biosynthesis of Extensively N-methylated Linear Peptides From an Australian Marine Tunicate-Derived Talaromyces sp” (Frontiers in Chemistry, 2018).

Assay [1] concerns Bacillus subtilis ATCC 6633. Type of assay: cell-based. Particulars: ATCC 6633, 24 h.
Assay [2] relates to SW620. Put plainly: cells. The arrangement: MTT assay of cancer cell growth inhibition, absorbance at 580 nm. To be noted: Homo sapiens, SW-620, 48 h. The procedure:
(§1) Adherent cell SW620 (human colorectal carcinoma) and NCI-H460 (human lung carcinoma) cells were cultured in Roswell Park Memorial Institute (RPMI) 1640 medium. All cells were cultured as adherent mono-layers in flasks supplemented with 10% fetal bovine serum, L–glutamine (2 mM), penicillin (100 unit/mL), and streptomycin (100 μg/mL), in a humidified 37°C incubator supplied with 5% CO2. Briefly, cells were harvested with trypsin and dispensed into 96-well microtiter assay plates at 3,000 cells/well, after which they were incubated for 18 h at 37°C with 5% CO2 (to allow cells to attach as adherent mono-layers). Test compounds were dissolved in 20% DMSO in PBS (v/v) and aliquots (10 μL) applied to cells over a series of final concentrations ranging from 10 nM to 30 μM. After 48 h incubation at 37°C with 5% CO2 an aliquot (20 μL) of 3-(4,5-dimethylthiazol-2-yl)-2,5-diphenyltetrazolium bromide (MTT) in phosphate buffered saline (PBS, 5 mg/mL) was added to each well (final concentration 0.5 mg/mL), and microtiter plates were incubated for a further 4 h at 37°C with 5% CO2. After final incubation, the medium was aspirated and precipitated formazan crystals dissolved in DMSO (100 μL/well). The absorbance of each well was measured at 580 nm with a PowerWave XS Microplate Reader from Bio-Tek Instruments Inc. Where relevant, IC50 values were calculated using Prism 7.0, as the concentration of analyte required for 50% inhibition of cancer cell growth (compared to negative controls). Negative control was 1% aqueous DMSO, while positive control was doxorubicin (30 μM). All experiments were performed in duplicate.

For assay [3], the system named is NCI-H460. Put plainly: cells. Also noted: MTT assay of cancer cell growth inhibition, absorbance at 580 nm. Particulars: Homo sapiens, NCI-H460, 48 h. The procedure: as §1

Where two headings read alike, the source gives them in different places. Where a SMILES comes first, the peptide text is derived from it. [ ]: non-standard residue; d: D form. NMeF = CN[C@@H](Cc1ccccc1)C(=O)O; NMeI = CC[C@H](C)[C@H](NC)C(=O)O; NMeV = CN[C@H](C(=O)O)C(C)C; NMeA = CN[C@@H](C)C(=O)O Where only a bound is given, the exact number is not on record here.

Consider `CC[C@H](C)[C@@H](C(=O)N[C@@H](CC(C)C)C(=O)O)N(C)C(=O)[C@H](Cc1ccccc1)N(C)C(=O)[C@H](C(C)C)N(C)C(=O)[C@H](C(C)C)N(C)C(=O)[C@@H]1CCCN1C(=O)[C@H](C(C)C)N(C)C(=O)[C@@H](NC(=O)[C@@H](NC(=O)[C@H](C(C)C)N(C)C(=O)[C@H](C)NC)C(C)C)[C@@H](C)O` [compound 2, talaropeptide A] (H-[NMeA][NMeV]VT[NMeV]P[NMeV][NMeV][NMeF][NMeI]L-OH), for which the IC50 is 1.5 µM in assay [1], over 30 µM in assay [2] (read-out: 2) and over 30 µM in assay [3] (read-out: 2).
On to `CC[C@H](C)[C@@H](C(=O)N[C@@H](CC(C)C)C(=O)O)N(C)C(=O)[C@H](Cc1ccccc1)N(C)C(=O)[C@H](C(C)C)N(C)C(=O)[C@H](C(C)C)N(C)C(=O)[C@@H]1CCCN1C(=O)[C@H](C(C)C)N(C)C(=O)[C@@H](NC(=O)[C@@H](NC(=O)[C@@H](NC(=O)[C@H](C(C)C)N(C)C(=O)[C@H](C)NC)C(C)C)[C@@H](C)O)C(C)C` [compound 3, talaropeptide B] (H-[NMeA][NMeV]VTV[NMeV]P[NMeV][NMeV][NMeF][NMeI]L-OH), for which the figures for the IC50 in assay [1], in assay [2] (read-out: 3) and in assay [3] (read-out: 3) were 3.7 µM, over 30 µM and over 30 µM, respectively.
Turning to `CC[C@H](C)[C@@H](C(=O)N[C@@H](CC(C)C)C(=O)O)N(C)C(=O)[C@H](Cc1ccccc1)N(C)C(=O)[C@H](C(C)C)N(C)C(=O)[C@H](C(C)C)N(C)C(=O)[C@@H]1CCCN1C(=O)[C@H](C(C)C)N(C)C(=O)[C@@H](NC(=O)[C@@H](NC(=O)[C@H](C(C)C)N(C)C(=O)[C@H](C)N(C)C(C)=O)C(C)C)[C@@H](C)O` [compound 4, talaropeptide C] (Ac-[NMeA][NMeV]VT[NMeV]P[NMeV][NMeV][NMeF][NMeI]L-OH), the IC50 in assay [2] (read-out: 4) and in assay [3] (read-out: 4) was over 30 µM in each case.
For `CC[C@H](C)[C@@H](C(=O)N[C@@H](CC(C)C)C(=O)O)N(C)C(=O)[C@H](Cc1ccccc1)N(C)C(=O)[C@H](C(C)C)N(C)C(=O)[C@H](C(C)C)N(C)C(=O)[C@@H]1CCCN1C(=O)[C@H](C(C)C)N(C)C(=O)[C@@H](NC(=O)[C@@H](NC(=O)[C@@H](NC(=O)[C@H](C(C)C)N(C)C(=O)[C@H](C)N(C)C(C)=O)C(C)C)[C@@H](C)O)C(C)C` [compound 5, talaropeptide D] (Ac-[NMeA][NMeV]VTV[NMeV]P[NMeV][NMeV][NMeF][NMeI]L-OH), the IC50 in assay [2] (read-out: 5) and in assay [3] (read-out: 5) was over 30 µM each time.
